Measurements as given in patent publication US20250296909A1, “NOVEL BENZENE DERIVATIVE AND IMMUNOSUPPRESSION-RELATED USE THEREOF” (PROVIBIO CO., LTD., priority 2021, published 2025).
Read-outs that look alike come from different tables or passages of the source.

Experiments:
[1] = tested on: spleen T cells; assay: T cell proliferation inhibition (CFSE, FACS), CD3/CD28-activated spleen T cells; assay type: cell-based, C57BL/6 mice; settings: for inhibition at 10 µM / inhibition at 30 µM / inhibition at 50 µM: Mus musculus, T-cell, read-out: Proliferation inhibition rate (%)
Method: To investigate whether the compounds obtained in the Preparation Example have an inhibitory effect on T cell proliferation, the T cell proliferation was determined ex vivo using the fluorescent dye carboxyfluorescein diacetate succinimidyl ester (CFSE), which binds to intracellular molecules by covalent bonds.
Spleens were harvested and minced from C57BL/6 mice at 7 weeks of age, and then single cells were isolated using a strainer (40 μm pore size, SPL). Red blood cells were removed using ACK (Ammonium-Chloride-Potassium) lysis buffer to isolate only leukocytes. Subsequently, CD90.2 microbeads (130-121-278, Miltenyi Biotech.) were added, and subjected to react at 4° C. for 20 minutes. After that, spleen T cells were isolated using a MACS Magnetic Stand and LS column. The isolated T cells from the spleen were resuspended in 1 mL of Free media (RPMI-1640+200 U/mL penicillin+200 μg/mL streptomycin), followed by the addition of 0.3 μL of CFSE (10 mM), and reacted at 37° C. for 5 minutes. Subsequently, 10 mL of Free media was added to stop the reaction, and the cells were centrifuged to obtain the cell pellet. RPMI 1640 medium containing 10% FBS, 100 U/mL penicillin, and 100 μg/mL streptomycin was added to suspend the cells, and 2×10^5 cells per well were seeded into a 96-well plate and T cells were activated by treatment with CD3 and CD28 antibodies (each at 0.5 μg/mL).
The compound diluted in DMSO was treated in triplicate at concentrations of 10 μM, 30 μM, and 50 μM, respectively. After incubation at 37° C. with 5% CO2 for 3 days, cell proliferation levels were determined using a FACS Canto machine.
In the FACS graph of FIG. 1, the y-axis represents the quantity (number) of cells, while the x-axis represents the fluorescence level of the cells. […] This reduction in CFSE fluorescence results in a leftward shift along the x-axis in the graph. This indicates cell proliferation.
To collectively indicate the proliferation inhibition rate for the experimental results, the relative value of the proliferation amount after compound administration to the proliferation amount after CD3/CD28+DMSO administration was calculated. Subsequently, it was converted into an inhibition amount and expressed as a percentage, thereby determining the proliferation inhibition rate. Specifically, the proliferation inhibition rate was calculated as follows: […]

[2] = tested on: T lymphocyte cell line Jurkat E6-1; assay: Cytotoxicity experiment (CCK-8, relative cell survival); assay type: cell-based; settings: 24 hours, untreated cells = 100%
Method: To evaluate the cytotoxicity of the compound according to the present invention, the following experiment was conducted.
The T lymphocyte cell line Jurkat E6-1, purchased from the Korean Cell Line Bank, was cultured in RPMI-1640 medium comprising 10% FBS, 100 U/mL penicillin, and 100 μg/mL streptomycin. After culturing, the cells were harvested and centrifuged at 1,300 rpm for 5 minutes. After removal of the supernatant, the cells were resuspended in the same medium at a concentration of approximately 2.2×10^5 cells/mL, and 90 μL of the cell suspension was distributed per well into a 96-well plate (Costar 96 well cell culture plate, Corning). After treating 10 μL of each compound at different concentrations onto the respective wells of the plate, it was cultured for 24 hours at 37° C. in a 5% CO2 incubator. Subsequently, 10 μL of CCK-8 was added to each well, and it was cultured again for 2 hours at 37° C. in a 5% CO2 incubator. Absorbance was then measured at 450 nm to determine the relative cell survival rate compared to untreated cells, as shown in Table 4.
The values listed in Table 4 represent the relative cell survival rates in the groups treated with each compound at different concentrations, with the cell survival rate of untreated cells set as 100%.

[3] = 72 h, Table 2, 10 μM, 3 days, relative to CD3/CD28+DMSO
[4] = 72 h, Table 2, 30 μM, 3 days, relative to CD3/CD28+DMSO
[5] = 72 h, Table 2, 50 μM, 3 days, relative to CD3/CD28+DMSO
[6] = Table 3 (compounds not belonging to Formula 1), 10 μM
[7] = Table 3 (compounds not belonging to Formula 1), 30 μM
[8] = Table 3 (compounds not belonging to Formula 1), 50 μM
[9] = Table 2, 10 μM, 3 days, relative to CD3/CD28+DMSO
[10] = Table 2, 30 μM, 3 days, relative to CD3/CD28+DMSO
[11] = Table 2, 50 μM, 3 days, relative to CD3/CD28+DMSO

Row | Structure (SMILES) | inhibition at 10 µM [1, 3] | inhibition at 30 µM [1, 4] | inhibition at 50 µM [1, 5] | Relative cell survival rate (%) ([2]; 10 μM) | Relative cell survival rate (%) ([2]; 20 μM) | Relative cell survival rate (%) ([2]; 30 μM) | Relative cell survival rate (%) ([2]; 50 μM) | inhibition at 10 µM [1, 6] | inhibition at 30 µM [1, 7] | inhibition at 50 µM [1, 8] | Proliferation inhibition rate (%) [1, 9] | Proliferation inhibition rate (%) [1, 10] | Proliferation inhibition rate (%) [1, 11]
1 | CCCCCCCCCCCCNC(=O)c1ccccc1-c1ncc[nH]1 [Compound 52] | 42% | 95% | 100% | 88% | 85% | 84% | 84% | – | – | – | – | – | –
2 | CCCCCCCCCNC(=O)/C=C/c1ccccc1Br [Compound 10] | 15% | 72% | 92% | 91% | 88% | 85% | 83% | 5% | 9% | 3% | – | – | –
3 | CCCCCCCCCCCCNC(=O)c1ccccc1[N+](=O)[O-] [Compound 50] | – | – | – | 74% | 75% | 70% | 68% | – | – | – | 0% | 66% | 97%
4 | CCCCCCCCCCCCNC(=O)c1cnccc1N [Compound 71] | 100% | 100% | 100% | 101% | 94% | 92% | 88% | – | – | – | – | – | –
5 | CCCCCCCCCCCCNC(=O)c1cccc(Cl)c1N [Compound 29] | 5% | 33% | 65% | 107% | 80% | 77% | 60% | – | – | – | – | – | –
6 | CCCCCCCCCCCCNC(=O)c1ccccc1Nc1cccc(C)c1C [Compound 51] | 100% | 100% | 100% | 99% | 94% | 92% | 90% | – | – | – | – | – | –
7 | CCCCCCCCCCCCNC(=O)c1ccccc1C(=O)NC1CCCCC1 [Compound 53] | 22% | 65% | 85% | 96% | 97% | 98% | 95% | – | – | – | – | – | –
8 | CCCCCCCCCCCCNC(=O)Cc1ccccc1 [Compound 25] | 20% | 90% | 99% | 95% | 90% | 87% | 84% | – | – | – | – | – | –
9 | CCCCCCCCCCCCNC(=O)c1ccccc1C(F)(F)F [Compound 38] | – | – | – | 90% | 91% | 89% | 89% | – | – | – | 40% | 73% | 85%
10 | CCCCCCCCNC(=O)c1cccnc1N [Compound 74] | 66% | 91% | 95% | 101% | 84% | 81% | 77% | – | – | – | – | – | –
11 | CCCCNC(=O)c1ccccc1F [Compound 81] | – | – | – | 103% | 105% | 107% | 108% | 0% | 2% | 22% | – | – | –
12 | CCCCCCCCCCCCNC(=O)c1c(F)cccc1[N+](=O)[O-] [Compound 64] | 79% | 100% | 100% | 91% | 87% | 87% | 87% | – | – | – | – | – | –
13 | CCCCCCCCCCCCNS(=O)(=O)c1ccccc1[N+](=O)[O-] [Compound 58] | 39% | 51% | 68% | 100% | 98% | 97% | 94% | – | – | – | – | – | –
14 | CCCCCCCCCCCCNC(=O)c1ccccc1C(=O)O [Compound 37] | 23% | 55% | 65% | 90% | 90% | 90% | 92% | – | – | – | – | – | –
15 | CCCCCCCCCCCCNC(=O)c1ccccc1-c1ccc(C)cc1 [Compound 27] | 62% | 96% | 100% | 109% | 77% | 71% | 63% | – | – | – | – | – | –
16 | CCCCCCCCCCCCNC(=O)c1cccnn1 [Compound 31] | 15% | 57% | 69% | 111% | 111% | 102% | 102% | – | – | – | – | – | –
17 | CCCCCCCCCCCCNC(=O)c1cccnc1Br [Compound 76] | – | – | – | 115% | 95% | 92% | 70% | – | – | – | 36% | 49% | 65%
18 | CCCCCCCCCCCCNC(=O)c1cccnc1O [Compound 70] | 29% | 78% | 98% | 119% | 122% | 124% | 125% | – | – | – | – | – | –
19 | CCCCCCCCCCCCNC(=O)c1cccnc1C(F)(F)F [Compound 77] | – | – | – | 116% | 124% | 123% | 123% | – | – | – | 24% | 47% | 66%
20 | CCCCCCCCCCCCNC(=O)c1ccccc1I [Compound 63] | 30% | 78% | 89% | 70% | 78% | 75% | 79% | – | – | – | – | – | –
21 | CCCCCCCCCCCCNC(=O)c1c(Cl)ccnc1Cl [Compound 30] | 16% | 41% | 55% | 120% | 109% | 108% | 106% | – | – | – | – | – | –
